Legend:
healthy subjects [1] = test: Multiple-dose, single-blind, placebo-controlled tolerance study of pulsed nitric oxide: adverse events; format: in vivo, human; settings: for Total % with any AE: 72 h pulsed inhalation
Procedure: (§1) A multiple-dose, single-blind, placebo-controlled, tolerance study of pulsed volumes of nitric oxide was completed using healthy subjects. An objective of the study was to determine safe dosing limits of inhaled nitric oxide delivered via a pulse system at cylinder concentrations of 100, 400, and 800 ppm and gas volumes ranging from 4 to 60 mL/breath at dose rates ranging from 17 to 166 μg of NO/sec. Yet another objective of the study was to determine the safety profile, including adverse events (AEs), vital signs and laboratory parameters.
(§2) Six subjects were assigned to each cohort (5 NO, 1 placebo) in a randomized, single-blind fashion. All subjects received 72 hours of continuous inhalation. A total of 22 cohorts were evaluated, with NO doses ranging from 125 to 1500 nmol/breath at delivery concentrations of 100, 400, or 800 ppm and varying volumes (4 to 60 mL per breath) in a matrix design, as shown in Table 1. Vital signs and safety laboratory were evaluated. Blood samples for determination of methemoglobin (MetHb) in venous blood, were collected for 72 hours at selected time points.
(§3) Primary safety evaluations included: (1) qualitative assessment of local nasal tolerability via a scoring system (0 to 3); and (2) formation of MetHb (compared with a standard of 7%) following varying concentrations and volumes of pulsed doses of NO. Safety evaluations included assessments of adverse events (AEs), medical history, physical examinations, vital signs, electrocardiograms (ECGs) and laboratory assessments at baseline and during the study period.
(§4) All evaluations were performed on the ‘Safety’ population, defined as all subjects who were enrolled and treated with any amount of study drug. Descriptive statistics included mean, standard deviation (SD), range, median, CV %, geometric mean and geometric CV %.
(§5) For analysis purposes, cohorts that received the same dose of NO but different cylinder concentrations and volumes were pooled, thereby creating 15 dose levels (n=14 active NO and 1 placebo, from all dose groups combined). These 15 dose levels were grouped into 4 dose analysis groups: placebo, low-dose NO (1-500 nmol/breath), mid-dose NO (501-1000 nmol/breath), and high-dose NO (1001-1500 nmol/breath).

healthy subjects [2] = test: Local nasal tolerability scoring (0 to 3) during 72 hours of pulsed nitric oxide inhalation; format: in vivo, human; settings: for Local tolerability Mean Score / Percent of Subjects Experiencing Nasal Irritation: 72 hours
Procedure: as §1
as §2, with “All subjects received 72 hours of continuous inhalation.” left out, “Blood samples for determination of methemoglobin (MetHb) in venous blood, were collected for 72 hours at selected time points.” left out
as §3, §4, §5
For analysis purposes, cohorts that received the same dose rate of administration of NO but different cylinder concentrations, doses and volumes were pooled, thereby creating 6 dose rate of administration levels (n=5 active NO and 1 placebo, from all rate of administration groups combined). The dose rate of administration of NO was calculated as the product of the flow rate of NO and the cylinder NO concentration.

[3] = NO 501-1000 nmol/breath (N = 45)
[4] = NO 1001-1500 nmol/breath (N = 15)

[N]=O [NO, Nitric oxide] was tested, and the “Back pain (% of subjects)” value (healthy subjects [1]; NO 1-500 nmol/breath (N = 50)) was 6.0%, the “Headache (% of subjects)” value (healthy subjects [1]; NO 1-500 nmol/breath (N = 50)) was 8.0% and the “Nausea (% of subjects)” value (healthy subjects [1]; NO 1-500 nmol/breath (N = 50)) was 2.0%. The “Total % with any AE” value (healthy subjects [1]; NO 1-500 nmol/breath (N = 50)) was 28.0%, the “Back pain (% of subjects)” value (healthy subjects [1]; [3]) was 4.4% and the “Headache (% of subjects)” value (healthy subjects [1]; [3]) was 4.4%. The “Nausea (% of subjects)” value (healthy subjects [1]; [3]) was 4.4%, the “Total % with any AE” value (healthy subjects [1]; [3]) was 33.3% and the “Back pain (% of subjects)” value (healthy subjects [1]; [4]) was 0.0%. For the same compound, the “Headache (% of subjects)” value (healthy subjects [1]; [4]) was 20.0%, the “Nausea (% of subjects)” value (healthy subjects [1]; [4]) was 6.7% and the “Total % with any AE” value (healthy subjects [1]; [4]) was 53.3%. The “Overall incidence of AEs” value (healthy subjects [1]; across dose, cylinder concentration and volume cohorts) was “only dose related”, the “Subjects withdrawn due to chest discomfort, decreased O2 saturation, and dyspnea” value (healthy subjects [1]; high-dose NO group (1001-1500 nmol/breath), one subject) was 6.7% and the “Local tolerability Mean Score” value (healthy subjects [2]; cylinder concentration 100 ppm) was 0.10. For the same compound, the “Local tolerability Mean Score” value (healthy subjects [2]; cylinder concentration 400 ppm) was 0.09, the “Local tolerability Mean Score” value (healthy subjects [2]; cylinder concentration 800 ppm) was 0.33 and the “Local tolerability Mean Score” value (healthy subjects [2]; dose group 125 nmol/breath, score 0 to 3) was 0.07. For the same compound, the “Local tolerability Mean Score” value (healthy subjects [2]; dose group 250 nmol/breath, score 0 to 3) was 0.00, the “Local tolerability Mean Score” value (healthy subjects [2]; dose group 340 nmol/breath, score 0 to 3) was 0.10 and the “Local tolerability Mean Score” value (healthy subjects [2]; dose group 420 nmol/breath, score 0 to 3) was 0.00. For the same compound, the “Local tolerability Mean Score” value (healthy subjects [2]; dose group 500 nmol/breath, score 0 to 3) was 0.10, the “Local tolerability Mean Score” value (healthy subjects [2]; dose group 585 nmol/breath, score 0 to 3) was 0.40 and the “Local tolerability Mean Score” value (healthy subjects [2]; dose group 670 nmol/breath, score 0 to 3) was 0.00. For the same compound, the “Local tolerability Mean Score” value (healthy subjects [2]; dose group 750 nmol/breath, score 0 to 3) was 0.00, the “Local tolerability Mean Score” value (healthy subjects [2]; dose group 840 nmol/breath, score 0 to 3) was 0.60 and the “Local tolerability Mean Score” value (healthy subjects [2]; dose group 920 nmol/breath, score 0 to 3) was 0.00. The “Local tolerability Mean Score” value (healthy subjects [2]; dose group 1000 nmol/breath, score 0 to 3) was 0.33, the “Local tolerability Mean Score” value (healthy subjects [2]; dose group 1160 nmol/breath, score 0 to 3) was 0.40 and the “Local tolerability Mean Score” value (healthy subjects [2]; dose group 1340 nmol/breath, score 0 to 3) was 0.20. The “Local tolerability Mean Score” value (healthy subjects [2]; dose group 1500 nmol/breath, score 0 to 3) was 0.75, the “Percent of Subjects Experiencing Nasal Irritation” value (“Percent” for short) (healthy subjects [2]; dosing rate 17 μg NO/sec) was 0% and the “Percent” value (healthy subjects [2]; dosing rate 21 μg NO/sec) was 10.0%. For the same compound, the “Percent” value (healthy subjects [2]; dosing rate 33 μg NO/sec) was 10%, the “Percent” value (healthy subjects [2]; dosing rate 83 μg NO/sec) was 10% and the “Percent” value (healthy subjects [2]; dosing rate 167 μg NO/sec) was 36.4%. The “Local tolerability Mean Score” value (healthy subjects [2]; pulse volume 4 mL/pulse) was 0.00, the “Local tolerability Mean Score” value (healthy subjects [2]; pulse volume 8 mL/pulse) was 0.00 and the “Local tolerability Mean Score” value (healthy subjects [2]; pulse volume 10 mL/pulse) was 0.20. For the same compound, the “Local tolerability Mean Score” value (healthy subjects [2]; pulse volume 15 mL/pulse) was 0.10, the “Local tolerability Mean Score” value (healthy subjects [2]; pulse volume 20 mL/pulse) was 0.00 and the “Local tolerability Mean Score” value (healthy subjects [2]; pulse volume 25 mL/pulse) was 0.60. The “Local tolerability Mean Score” value (healthy subjects [2]; pulse volume 30 mL/pulse) was 0.07, the “Local tolerability Mean Score” value (healthy subjects [2]; pulse volume 35 mL/pulse) was 0.40 and the “Local tolerability Mean Score” value (healthy subjects [2]; pulse volume 40 mL/pulse) was 0.10. The “Local tolerability Mean Score” value (healthy subjects [2]; pulse volume 45 mL/pulse) was 0.33, the “Local tolerability Mean Score” value (healthy subjects [2]; pulse volume 50 mL/pulse) was 0.00 and the “Local tolerability Mean Score” value (healthy subjects [2]; pulse volume 55 mL/pulse) was 0.00. For the same compound, the “Local tolerability Mean Score” value (healthy subjects [2]; pulse volume 60 mL/pulse) was 0.30, the Nasal irritation (healthy subjects [2]; doses less than 420 nmol/breath (about 0.4 mg/kg/hr), 48 hours of continuous administration) was “no evidence of nasal irritation” and the “Nasal tolerability compared with placebo” value (healthy subjects [2]; doses less than 420 nmol/breath, at 72 hours) was “no different than for placebo”. For the same compound, the “Subjects with nasal redness” value (healthy subjects [2]; doses less than 420 nmol/breath, at 72 hours, placebo 3/18) was 2/18, the “Incidence of nasal irritation” value (healthy subjects [2]; dosing rate of 166 μg g/sec, including a case of nasal ulceration) was “higher incidence of nasal irritation” and the “Nasal tolerability compared with placebo” value (healthy subjects [2]; dosing rates up to 166 μg/sec, 72 hours pulsed dosing) was “not different from placebo”.
